Patent publication US11472799B2, “Serine threonine kinase (AKT) degradation / disruption compounds and methods of use” (Icahn School of Medicine at Mount Sinai, priority 2018, dated 2022)

What was measured:
Type in all cases: cell-based, human
AKT [1] = assay: Western blot of AKT protein levels and downstream signaling in BT474 cells; settings: Western blot (FIGS. 1, 3, 4)
Summary of the method: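 Lysates were immunoblotted with chemiluminescent detection for p-AKT Ser473, total AKT, p-S6 Ser240/244 and p-PRAS40 Thr246, using actin as loading control.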

AKT [2] = assay: Time course Western blot of AKT degradation in BT474 cells; settings: for time point for the most significant AKT degradation: BT474 cells (FIGS. 2 and 5); for time-dependent reduction of AKT, p-AKT, P-PRAS40 (T246), and P-S6 (S240/244) protein levels: BT474 cells, 1 μM
Protocol: (§1) Cells were lysed in 2× sample buffer (125 mM Tris-HCl at pH 6.8, 10% βME, 2% SDS, 20% glycerol, 0.05% Bromophenol Blue, 8 M urea). Protein lysates were loaded into 4-12% Bis-Tris gels and resolved by electrophoresis. Samples were then blotted on PVDF membrane (Millipore IPVH00010) using the wet transfer technique (Invitrogen). Membranes were blocked in 5% milk-TBST for 1 hour, washed in TBST for 10 min, and incubated in primary antibody in 5% milk-TBST or 5% BSA-TBST at 4° C. for 16 h. Membranes were rinsed (3×6 min) in TBST and incubated in horseradish peroxidase-conjugated secondary antibodies in 5% milk-TBST for 1 hour and rinsed again in TBST (3×6 min). Membranes were visualized using the chemiluminescence system (Thermo 34080, 37075) on autoradiography film (Denville E3018). Primary Antibodies: R-actin (Sigma A5316), p-AKT (Ser473 CST-9721), total AKT (CST-9272), p-S6 (Ser240/244, CST-5364), p-PRAS40 (Thr246, CST-2997). Secondary Antibodies: Mouse (Thermo 31432), Rabbit (Thermo 31460).

AKT [3] = assay: Western blot of AKT protein levels in PC-3 cells; settings: for suppression of AKT protein level and AKT activity: 1 μM (FIGS. 11 and 12)
Protocol: PC-3, U87MG, HCC1143, MDA-MB-231, MDA-MB-468, BT474 and MCF-7 cell lines were purchased from ATCC. Cell lines were regularly tested in the lab for mycoplasma. All cells were cultured at 37° C. and 5% CO2. PC-3, U87MG, MDA-MB-231, MCF-7 and BT474 cells were cultured in 1×DMEM (Corning, 10-013-CV) with 10% fetal bovine serum (Atlanta Biologicals S11150) and 1× Penicillin/Streptomycin. HCC1143 cells were cultured in RPMI (Corning, 10-040-CV) medium with 10% fetal bovine serum (Atlanta Biologicals S11150) and 1× Penicillin/Streptomycin. Cells were split using 0.05% or 0.25% trypsin (Corning 25-051-Cl or 25-053-Cl, respectively) before they reached full confluence and media was changed every 3-4 days. Cells were treated with compounds individually at different concentrations for 24 hrs. Cells were treated with DMSO, VHL, or PML alone as controls.
as §1

Row | Structure (SMILES) | suppression of AKT protein level and AKT activity (AKT [3]) | also measured
1 | Cc1ncsc1-c1ccc(CNC(=O)[C@@H]2C[C@@H](O)CN2C(=O)[C@@H](NC(=O)CCCCCCCCCCNC(=O)CCNC[C@@H](C(=O)N2CCN(c3ncnc4c3[C@H](C)C[C@H]4O)CC2)c2ccc(Cl)cc2)C(C)(C)C)cc1 [XF038-166A, (2S,4R)-1-((S)-2-(11-(3-(((S)-2-(4-chlorophenyl)-3-(4-((5R,7R)-7-hydroxy-5-methyl-6,7-dihydro-5H-cyclopenta[d]pyrimidin-4-yl)piperazin-1-yl)-3-oxopropyl)amino)propanamido)undecanamido)-3,3-dimethylbutanoyl)-4-hydroxy-N-(4-(4-methylthiazol-5-yl)benzyl)pyrrolidine-2-carboxamide] |  | suppression of AKT protein level and AKT activity (AKT [1]): effective in suppressing both AKT protein level and AKT activity; time point for the most significant AKT degradation (AKT [2]): 24 h; time-dependent reduction of AKT, p-AKT, P-PRAS40 (T246), and P-S6 (S240/244) protein levels (AKT [2]): time-dependently reduces
2 | Cc1ncsc1-c1ccc(CNC(=O)[C@@H]2C[C@@H](O)CN2C(=O)[C@@H](NC(=O)CCCCCCC(=O)NCCc2cccc(-c3ccc4nc(-c5cccnc5N)n(-c5ccc(C6(N)CCC6)cc5)c4n3)c2)C(C)(C)C)cc1 [XF067-44, N^1-(3-(3-(4-(1-aminocycIobutyl)phenyl)-2-(2-aminopyridin-3-yl)-3H-imidazo[4,5-b]pyridin-5-yl)phenethyl)-N^8-((S)-1-((2S,4R)-4-hydroxy-2-((4-(4-methylthiazol-5-yl)benzyl)carbamoyl)pyrrolidin-1-yl)-3,3-dimethyl-1-oxobutan-2-yl)octanediamide] | effective in suppressing AKT protein level and AKT activity | 
3 | CCn1c(-c2nonc2N)nc2c(C#CC(C)(C)O)ncc(OCCCNCCCC(=O)NCCCCCCCCC(=O)N[C@H](C(=O)N3C[C@H](O)C[C@H]3C(=O)NCc3ccc(-c4scnc4C)cc3)C(C)(C)C)c21 [XF067-99, (2S,4R)-1-((S)-2-(9-(4-((3-((2-(4-amino-1,2,5-oxadiazol-3-yl)-1-ethyl-4-(3-hydroxy-3-methylbut-1-yn-1-yl)-1H-imidazo[4,5-c]pyridin-7-yl)oxy)propyl)amino)butanamido)nonanamido)-3,3-dimethylbutanoyl)-4-hydroxy-N-(4-(4-methylthiazol-5-yl)benzyl)pyrrolidine-2-carboxamide] | effective in suppressing AKT protein level and AKT activity | 
4 | Cc1ncsc1-c1ccc(CNC(=O)[C@@H]2C[C@@H](O)CN2C(=O)[C@@H](NC(=O)CCCCCCCNC(=O)CCc2cccc(-c3ccc4nc(-c5cccnc5N)n(-c5ccc(C6(N)CCC6)cc5)c4n3)c2)C(C)(C)C)cc1 [XF067-15, (2S,4R)-1-((S)-2-(8-(3-(3-(3-(4-(1-aminocyclobutyl)phenyl)-2-(2-aminopyridin-3-yl)-3H-imidazo[4,5-b]pyridin-5-yl)phenyl)propanamido)octanamido)-3,3-dimethylbutanoyl)-4-hydroxy-N-(4-(4-methylthiazol-5-yl)benzyl)pyrrolidine-2-carboxamide] | effective in suppressing AKT protein level and AKT activity | 
5 | CCn1c(-c2nonc2N)nc2c(C#CC(C)(C)O)ncc(OCCCNCCCC(=O)NCCCCCCCCCC(=O)N[C@H](C(=O)N3C[C@H](O)C[C@H]3C(=O)NCc3ccc(-c4scnc4C)cc3)C(C)(C)C)c21 [XF067-100, (2S,4R)-1-((S)-2-(10-(4-((3-((2-(4-amino-1,2,5-oxadiazol-3-yl)-1-ethyl-4-(3-hydroxy-3-methylbut-1-yn-1-yl)-1H-imidazo[4,5-c]pyridin-7-yl)oxy)propyl)amino)butanamido)decanamido)-3,3-dimethylbutanoyl)-4-hydroxy-N-(4-(4-methylthiazol-5-yl)benzyl)pyrrolidine-2-carboxamide] | effective in suppressing AKT protein level and AKT activity | 
6 | Cc1ncsc1-c1ccc(CNC(=O)[C@@H]2C[C@@H](O)CN2C(=O)[C@@H](NC(=O)CCCCCCCCCCNC(=O)CCc2cccc(-c3ccc4nc(-c5cccnc5N)n(-c5ccc(C6(N)CCC6)cc5)c4n3)c2)C(C)(C)C)cc1 [XF067-18, (2S,4R)-1-((S)-2-(11-(3-(3-(3-(4-(1-aminocyclobutyl)phenyl)-2-(2-aminopyridin-3-yl)-3H-imidazo[4,5-b]pyridin-5-yl)phenyl)propanamido)undecanamido)-3,3-dimethylbutanoyl)-4-hydroxy-N-(4-(4-methylthiazol-5-yl)benzyl)pyrrolidine-2-carboxamide] | effective in suppressing AKT protein level and AKT activity | 
7 | Nc1ncccc1-c1nc2ccc(-c3ccccc3)nc2n1-c1ccc(C2(N)CCC2)cc1 [ARQ-092, 3-(3-(4-(1-Aminocyclobutyl)phenyl)-5-phenyl-3H-imidazo[4,5-b]pyridin-2-yl)pyridin-2-amine, reference compound] |  | AKT protein levels (AKT [3]; 1 μM for 24 h (FIGS. 11, 12)): no effect
8 | Cc1ncsc1-c1ccc(CNC(=O)[C@@H]2C[C@@H](O)CN2C(=O)[C@@H](NC(=O)CCCCCCCCC(=O)NCCc2cccc(-c3ccc4nc(-c5cccnc5N)n(-c5ccc(C6(N)CCC6)cc5)c4n3)c2)C(C)(C)C)cc1 [XF067-46, N^1-(3-(3-(4-(1-aminocyclobutyl)phenyl)-2-(2-aminopyridin-3-yl)-3H-imidazo[4,5-b]pyridin-5-yl)phenethyl)-N^10-((S)-1-((2S,4R)-4-hydroxy-2-((4-(4-methylthiazol-5-yl)benzyl)carbamoyl)pyrrolidin-1-yl)-3,3-dimethyl-1-oxobutan-2-yl)decanediamide] | effective in suppressing AKT protein level and AKT activity | 
9 | Cc1ncsc1-c1ccc(CNC(=O)[C@@H]2C[C@@H](O)CN2C(=O)[C@@H](NC(=O)CCCCCCCCCNC(=O)CCc2cccc(-c3ccc4nc(-c5cccnc5N)n(-c5ccc(C6(N)CCC6)cc5)c4n3)c2)C(C)(C)C)cc1 [XF067-17, (2S,4R)-1-((S)-2-(10-(3-(3-(3-(4-(1-aminocyclobutyl)phenyl)-2-(2-aminopyridin-3-yl)-3H-imidazo[4,5-b]pyridin-5-yl)phenyl)propanamido)decanamido)-3,3-dimethylbutanoyl)-4-hydroxy-N-(4-(4-methylthiazol-5-yl)benzyl)pyrrolidine-2-carboxamide] | effective in suppressing AKT protein level and AKT activity | 
10 | CCn1c(-c2nonc2N)nc2c(C#CC(C)(C)O)ncc(OCCCNCCCC(=O)NCCCCCCCNc3cccc4c3C(=O)N(C3CCC(=O)NC3=O)C4=O)c21 (stereo not drawn) [XF067-112, 4-((3-((2-(4-amino-1,2,5-oxadiazol-3-yl)-1-ethyl-4-(3-hydroxy-3-methylbut-1-yn-1-yl)-1H-imidazo[4,5-c]pyridin-7-yl)oxy)propyl)amino)-N-(7-((2-(2,6-dioxopiperidin-3-yl)-1,3-dioxoisoindolin-4-yl)amino)heptyl)butanamide] | effective in suppressing AKT protein level and AKT activity | 
11 | CCn1c(-c2nonc2N)nc2c(C#CC(C)(C)O)ncc(OCCCNCCCC(=O)NCCCCCCCCCCC(=O)N[C@H](C(=O)N3C[C@H](O)C[C@H]3C(=O)NCc3ccc(-c4scnc4C)cc3)C(C)(C)C)c21 [XF067-101, (2S,4R)-1-((S)-2-(11-(4-((3-((2-(4-amino-1,2,5-oxadiazol-3-yl)-1-ethyl-4-(3-hydroxy-3-methylbut-1-yn-1-yl)-1H-imidazo[4,5-c]pyridin-7-yl)oxy)propyl)amino)butanamido)undecanamido)-3,3-dimethylbutanoyl)-4-hydroxy-N-(4-(4-methylthiazol-5-yl)benzyl)pyrrolidine-2-carboxamide] | effective in suppressing AKT protein level and AKT activity | 
12 | Cc1ncsc1-c1ccc([C@H](C)NC(=O)[C@@H]2C[C@@H](O)CN2C(=O)[C@@H](NC(=O)CCCCCCCCCCNC(=O)CCNC[C@@H](C(=O)N2CCN(c3ncnc4c3[C@H](C)C[C@H]4O)CC2)c2ccc(Cl)cc2)C(C)(C)C)cc1 [XF042-162, (2S,4R)-1-((S)-2-(11-(3-(((S)-2-(4-chlorophenyl)-3-(4-((5R,7R)-7-hydroxy-5-methyl-6,7-dihydro-5H-cyclopenta[d]pyrimidin-4-yl)piperazin-1-yl)-3-oxopropyl)amino)propanamido)undecanamido)-3,3-dimethylbutanoyl)-4-hydroxy-N-((S)-1-(4-(4-methylthiazol-5-yl)phenyl)ethyl)pyrrolidine-2-carboxamide] |  | time point for the most significant AKT degradation (AKT [2]): 24 h; time-dependent reduction of AKT, p-AKT, P-PRAS40 (T246), and P-S6 (S240/244) protein levels (AKT [2]): time-dependently reduce
